Measured values reported in publication PMC7600679, “Benzoxazole-Based Metal Complexes to Reverse Multidrug Resistance in Bacteria” (Antibiotics, 2020).
≈ marks a conversion by molar mass, not a printed value. Where two headings read alike, the source gives them in different places.

Key:
S. aureus MRSA 272123 = test: Resistance modulation (MIC reduction) assay with CIP and TET; type: cell-based, Staphylococcus aureus; conditions: for Reduction of the MIC value of CIP: compound at a quarter of the MIC; for CIP MIC in combination with compounds: compound at ¼ MIC, value is the MIC of ciprofloxacin
Description: (§1) The resistance modulation effects of compounds with ciprofloxacin (CIP) and tetracycline (TET) antibiotics were evaluated by the MIC reduction method on the Gram-negative E. coli AG100, AG100 A, and the Gram-positive S. aureus ATCC and MRSA strains.
(§2) The chemosensitizing activity of benzoxazole-type ligands and their metal complexes was determined based on the MIC values of the antibiotics in the presence of sub-inhibitory concentrations of the compounds (¼ MIC) in both Gram-negative and Gram-positive strains. The MICs were determined in strains by the two-fold broth microdilution method in 96-well plates, using serial dilutions of TET and CIP. The first four rows contained two-fold dilutions of antibiotics, and combinations of the TET and CIP and tested compounds were transferred into the last four rows. The 10^−4 dilution of an overnight bacterial culture in 50 μL of MHB was then measured to each well, except for the medium control wells. The plates were kept at 37 °C for 18 h. MIC values of antibiotics and their combination with tested compounds were detected by visual inspection.

[1] = test system: C. violaceum 026 sensor strain with AHL producer E. cloacae 31298; test: Quorum sensing inhibition (agar diffusion, violacein production); type: cell-based, Chromobacterium violaceum; conditions: disc with 10 μL of 1 mM stock; reduction of violacein zone
Description: The following bacterial strains were applied in the QS tests: C. violaceum 026 as sensor strain and E. cloacae 31298 isolated from clinical wound (used as N-acyl-homoserine lactone (AHL) producer); this strain induced pigment production by C. violaceum and is a model strain to study QS interactions.
LB* was applied for these experiments. The sensor strain C. violaceum 026 and the AHL producer strains E. cloacae 31298 were inoculated as parallel lines and incubated at room temperature for 24–48 h. The inhibition of bacterial communication was determined by the agar diffusion method. Filter paper discs (7.0 mm in diameter) were impregnated with 10 μL of stock solutions (1 mM) of the compounds in DMSO. The discs were placed between the parallel lines of the sensor and the AHL producer strains. The plates were kept at room temperature for another 24–48 h, and the interactions between the strains and compounds were determined as the reduction in the size of the zone of purple pigment (violacein) production in millimeters. PMZ was applied as a positive control.

E. coli AG100 [2] = test: Resistance modulation (MIC reduction) assay with CIP and TET; type: cell-based, Escherichia coli; conditions: compound at ¼ MIC, value is the MIC of ciprofloxacin
Description: as §1, §2

E. coli AG100 [3] = test: Minimum inhibitory concentration (broth microdilution, CLSI); type: cell-based, Escherichia coli; conditions: E. coli AG100, 18 h, visual inspection, read-out: MIC
Description: The strains were donated by Prof. Dr. Hiroshi Nikaido (Department of Molecular and Cell Biology and Chemistry, University of California, Berkeley, CA, USA).
(§3) The minimum inhibitory concentrations (MICs) of compounds were determined in 96-well plates based on the Clinical and Laboratory Standard Institute guidelines (CLSI guidelines). The compounds were diluted in 100 μL of MHB. Then, 10^−4 dilution of an overnight bacterial culture in 100 μL of medium were added to each well, with the exception of the medium control wells.

E. coli AG100 [4] = test: Real-time ethidium bromide accumulation (efflux pump inhibition, AcrAB-TolC); type: cell-based, Escherichia coli; conditions: compounds at ¼ MIC, EB 1 μg/mL, minute 30
Description: (§4) Since multidrug resistance EPs are very important factors contributing to multidrug resistance (MDR) in both Gram-positive and Gram-negative bacteria, the inhibition of these pumps could reverse the resistant phenotype and restore the activity of antibiotics. The effect of compounds on ethidium bromide (EB) accumulation was determined by the automated EB method. This assay was used to determine how much of the fluorescent dye and pump substrate EB was accumulated by the bacterial cells in the presence of the tested compounds. The real-time accumulation of EB was monitored for 30 min in both S. aureus and E. coli strains.
(§5) The accumulation of the efflux pump substrate EB was monitored by the automated EB method using a LightCycler real-time thermocycler (LightCycler 1.5, Roche, Indianapolis, IN, USA). An aliquot of an overnight culture of the S. aureus strains in TSB medium was inoculated into fresh TSB medium, and it was incubated until it reached an optical density (OD) of 0.6 at 600 nm. In the case of E. coli strains, the medium applied in the assay was LB broth; the preparation of the inoculum was similar to the one of S. aureus. The cells were washed with phosphate buffered saline (PBS; pH 7.4) and centrifuged at 13,000 × g for 3 min, the pellets were re-suspended in PBS (pH 7.4), and the OD was calibrated to 0.6 at 600 nm. The compounds were measured at ¼ MIC concentration (in double-concentrated form) to the EB solution in PBS. The final concentration of EB was determined according to the MIC and the fluorescent signal produced by this amount of EB. In the case of all strains, the concentration of EB was 1 μg/mL. Then, 10 μL of the EB solution plus the compound were pipetted into standard glass capillary tubes of 20 µL maximum volume (Roche, Indianapolis, USA), and 10 μL of bacterial culture (OD of 0.6 at 600 nm) were transferred to the capillaries. The capillaries containing the samples were placed into the carousel, and the fluorescence was monitored at the FL-2 channel in every minute on a real-time basis.
(§6) Based on the data obtained, the relative fluorescence index (RFI) of the last time point (minute 30) was determined as follows:RFI = (RFtreated − RFuntreated)/RFuntreated(1) where RFtreated is the relative fluorescence (RF) at the last time point of the EB retention curve in the presence of an inhibitor, and RFuntreated is the relative fluorescence at the last time point of the EB retention curve of the untreated control having the solvent control (DMSO).

E. coli AG100 A [5] = test: Real-time ethidium bromide accumulation (efflux pump inhibition); type: cell-based, Escherichia coli; conditions: compounds at ¼ MIC, EB 1 μg/mL, minute 30
Description: as §4, §5, §6

E. coli AG100 A [6] = test: Minimum inhibitory concentration (broth microdilution, CLSI); type: cell-based, Escherichia coli; conditions: 18 h
Description: Wild-type E. coli K-12 AG100 strain (argE3 thi-1 rpsL xyl mtl Δ(gal-uvrB) supE44) expressing the AcrAB TolC EP at its basal level and its AcrAB-TolC deleted mutant E. coli K-12 AG100 A strain. The strains were donated by Prof. Dr. Hiroshi Nikaido (Department of Molecular and Cell Biology and Chemistry, University of California, Berkeley, CA, USA).
as §3

[7] = E. coli AG100 A (AcrAB-TolC deleted), visual inspection

Row | SMILES | Reduction of the MIC value of CIP (S. aureus MRSA 272123) [fold] | CIP MIC in combination with compounds (S. aureus MRSA 272123) [µM] | Inhibition zone (quorum sensing) [1] [mm] | CIP MIC in combination with compounds (E. coli AG100 [2]) [µM] | MIC (E. coli AG100 [3]; Escherichia coli) [µM] | Relative fluorescence index (RFI) (E. coli AG100 [4]) | Relative fluorescence index (RFI) (E. coli AG100 A [5]) | MIC (E. coli AG100 A [6]; Escherichia coli, AG100A) [µM] | MIC (E. coli AG100 [3]) [µM] | MIC (E. coli AG100 A [6]; [7]) [µM]
1 | O=C(Cc1nc2ccccc2o1)C(F)F [Compound 3] | 2 | 6.25 | 56 | 0.016 | 50 (≈ 10.6 µg/mL) | −0.07 | −0.03 | 25 (≈ 5.28 µg/mL) |  | 
2 | [O-]C(=Cc1nc2ccccc2o1)C(F)(F)Cl.[O-]C(=Cc1nc2ccccc2o1)C(F)(F)Cl.[Zn+2] [Compound 5] | 2 | 6.25 | 16 | 0.016 |  | 0.37 | −0.19 |  | 50 | 12.5
3 | [Fe+3].[O-]C(=Cc1nc2ccccc2o1)C(F)(F)F.[O-]C(=Cc1nc2ccccc2o1)C(F)(F)F.[O-]C(=Cc1nc2ccccc2o1)C(F)(F)F [Compound 12] | 2 | 6.25 |  | 0.016 |  | 0.04 | 0.09 |  | >100 | 50
